Experimental data: patent US8063072B2 (Roche Palo Alto LLC, priority 2009, dated 2011)

Experiments:
[1] = target: T1, HCV polymerase (NS5B570n-Con1) (Hepatitis C virus genotype 1b, UniProt Q9WMX2); experiment: HCV NS5B RNA polymerase activity; type: biochemical, HCV Con1 strain
T1 construct: contains a 21 amino acid deletion at the C-terminus relative to the full-length HCV polymerase; 6-histidine (His6) (N); made in house; host or cells: E. coli BL21(DE) pLysS, plasmid pET17b
Protocol: The enzymatic activity of HCV polymerase (NS5B570n-Con1) was measured as the incorporation of radiolabeled nucleotide monophosphates into acid insoluble RNA products. Unincorporated radiolabeled substrate was removed by filtration and scintillant was added to the washed and dried filter plate containing radiolabeled RNA product. The amount of RNA product generated by NS5B570-Con1 at the end of the reaction was directly proportional to the amount of light emitted by the scintillant.
The N-terminal 6-histidine tagged HCV polymerase, derived from HCV Con1 strain, genotype 1b (NS5B570n-Con1) contains a 21 amino acid deletion at the C-terminus relative to the full-length HCV polymerase and was purified from E. coli strain BL21(DE) pLysS. The construct, containing the coding sequence of HCV NS5B Con1 (GenBank accession number AJ242654) was inserted into the plasmid construct pET17b, downstream of a T7 promoter expression cassette and transformed into E. coli. A single colony was grown overnight as a starter culture and later used inoculate 10 L of LB media supplemented with 100 μg/mL ampicillin at 37° C. Protein expression was induced by the addition of 0.25 mM isopropyl-β-D-thiogalactopyranoside (IPTG) when optical density at […] of the culture was between 0.6 and 0.8 and cells were harvested after 16 to 18 h at 30° C. NS5B570n-Con1 was purified to homogeneity using a three-step protocol including subsequent column chromatography on Ni-NTA, SP-Sepharose HP and Superdex 75 resins.
Each 50 μL enzymatic reaction contained 20 nM RNA template derived from the complementary sequence of the Internal Ribosome Entry Site (cIRES), 20 nM NS5B570n-Con1 enzyme, 0.5 μCi of tritiated UTP (Perkin Elmer catalog no. TRK-412; specific activity: 30 to 60 Ci/mmol; stock solution concentration from 7.5×10^-5 M to 20.6×10^-6 M), 1 μM each ATP, CTP, and GTP, 40 mM Tris-HCl pH 8.0, 40 mM NaCl, 4 mM DTT (dithiothreitol), 4 mM MgCl2, and 5 μl of compound serial diluted in DMSO. Reaction mixtures were assembled in 96-well filter plates (cat #MADVNOB, Millipore Co.) and incubated for 2 h at 30° C. Reactions were stopped by addition of 10% final (v/v) trichloroacetic acid and incubated for 40 min at 4° C. Reactions were filtered, washed with 8 reaction volumes of 10% (v/v) trichloroacetic acetic acid, 4 reaction volumes of 70% (v/v) ethanol, air dried, and 25 μl of scintillant (Microscint 20, Perkin-Elmer) was added to each reaction well.
The amount of light emitted from the scintillant was converted to counts per minute (CPM) on a Topcount® plate reader (Perkin-Elmer, Energy Range: Low, Efficiency Mode: Normal, Count Time: 1 min, Background Subtract: none, Cross talk reduction: Off).
Data was analyzed in Excel® (Microsoft) and ActivityBase® (Idbs®). The reaction in the absence of enzyme was used to determine the background signal, which was subtracted from the enzymatic reactions. Positive control reactions were performed in the absence of compound, from which the background corrected activity was set as 100% polymerase activity. All data was expressed as a percentage of the positive control. The compound concentration at which the enzyme-catalyzed rate of RNA synthesis was reduced by 50% (IC50) was calculated by fitting equation (i) to the data where“Y”
[formula] corresponds to the relative enzyme activity (in %), “% Min” is the residual relative activity at saturating compound concentration, “% Max” is the relative maximum enzymatic activity, “X” corresponds to the compound concentration, and “S” is the Hill coefficient (or slope).

[2] = tested on: genotype 1b replicon in HCV replicon cells (2209-23); experiment: HCV replicon assay (Renilla luciferase reporter); type: cell-based, HCV genotype 1b; details: Hepatitis C virus, 72 h; cell line 2209-23, three days incubation, luciferase readout
[3] = in vitro; details: human
[4] = tested on: HCV; details: cited from earlier work

Row | Compound | IC50 [1] [nM] | melting point [°C] | IC50 [2] [nM] | CC50 [3] [nM] | effect on serum levels of HCV-RNA ([4]; monotherapy / sole treatment) | patients with serum amino transferase levels reduced to normal ([4]; monotherapy) [%]
1 | CC(C)(C)c1cc(/C=C/c2ccc(NS(C)(=O)=O)cc2)cc(-c2ccc[nH]c2=O)n1 [Compound I-1] | 4 | 258 to 260 | 108 | 15100 | – | –
2 | CC(C)(C)c1cc(/C=C/c2ccc(NS(C)(=O)=O)cc2)c(O)c(-c2ccc[nH]c2=O)n1 [Compound I-2, N-{4-[(E)-2-(6-tert-Butyl-3-hydroxy-2′-oxo-1′,2′-dihydro-[2,3′]bipyridinyl-4-yl)-vinyl]-phenyl}-methanesulfonamide] | 177 | 178 to 180 | – | – | – | –
3 | CC(C)(C)c1cc(CCc2ccc(NS(C)(=O)=O)cc2)c(O)c(-c2ccc[nH]c2=O)n1 [Compound I-3, N-{4-[2-(6-tert-Butyl-3-hydroxy-2′-oxo-1′,2′-dihydro-[2,3′]bipyridinyl-4-yl)-ethyl]-phenyl}-methanesulfonamide] | 27 | 123 to 125 | 566 | – | – | –
4 | COC(=O)c1cc(C(C)(C)C)nc(-c2ccc[nH]c2=O)c1C#N [Compound I-4, 6-tert-Butyl-3-cyano-2′-oxo-1′,2′-dihydro-[2,3′]bipyridinyl-4-carboxylic acid methyl ester] | 5640 | 228 to 230 | – | – | – | –
5 | CC(C)(C)c1cc(C(=O)N[C@H]2CC[C@H](NS(C)(=O)=O)CC2)c(C#N)c(-c2ccc[nH]c2=O)n1 [Compound I-5, 6-tert-Butyl-3-cyano-2′-oxo-1′,2′-dihydro-[2,3′]bipyridinyl-4-carboxylic acid (4-methanesulfonylamino-cyclohexyl)-amide] | 42 | 208 to 210 | – | – | – | –
6 | CC(C)(C)c1cc(CCc2ccc(NS(C)(=O)=O)cc2)c(C#N)c(-c2ccc[nH]c2=O)n1 [Compound I-6, N-{4-[2-(6-tert-Butyl-3-cyano-2′-oxo-1′,2′-dihydro-[2,3′]bipyridinyl-4-yl)-ethyl]-phenyl}-methanesulfonamide] | 4 | – | – | – | – | –
7 | CC(C)(C)c1nc(/C=C/c2ccc(NS(C)(=O)=O)cc2)cc(-c2ccc[nH]c2=O)n1 [Compound I-7, N-(4-{(E)-2-[2-tert-Butyl-6-(2-oxo-1,2-dihydro-pyridin-3-yl)-pyrimidin-4-yl]-vinyl}-phenyl)-methanesulfonamide] | 10 | 271 to 273 | – | – | – | –
8 | NC(=O)c1ncn([C@@H]2O[C@H](CO)[C@@H](O)[C@H]2O)n1 [ribavirin, 1-((2R,3R,4S,5R)-3,4-Dihydroxy-5-hydroxymethyl-tetrahydro-furan-2-yl)-1H-[1,2,4]triazole-3-carboxylic acid amide] | – | – | – | – | does not lower serum levels of HCV-RNA | 40
